Source: patent US20230312562A1, “TETRAHYDRO-3H-PYRAZOLO QUINOLONE AND TETRAHYDRO-3H-PYRROLO[3,2-F]QUINOLINE -CONTAINING COMPOUNDS AND USES THEREOF” (Purdue Research Foundation, priority 2020, published 2023)

Each compound was assayed on MDA-MB-231 (assay: Inhibition of MDA-MB-231 viability/growth at 1 μM, 72 h). Conditions: 1 μM compound, 72 h incubation.
Format: cell-based
For `Nc1n[nH]c2ccc([C@@H]3Nc4ccc5[nH]cnc5c4[C@H]4C5CC[C@@H](C5)[C@@H]34)cc12` (stereo in doubt) [Compound 19, 5-(6,7,7a,8,9,10,11,11a-Octahydro-3H-8,11-methanoimidazo[4,5-a]phenanthridin-7-yl)-1H-indazol-3-amine], the “Inhibition of MDA-MB-231, result in words” value (“Inhibition … in words” for short) was “loss in potency”.
With `Nc1n[nH]c2cc([C@@H]3Nc4c(Cl)cc5[nH]ncc5c4[C@H]4[C@@H]5CC[C@@H](C5)[C@H]43)ccc12` (stereo in doubt) [Compound 24, 6-(5-Chloro-6,7,7a,8,9,10,11,11a-octahydro-3H-8,11-methanopyrazolo[4,3-a]phenanthridin-7-yl)-1H-indazol-3-amine] the “Inhibition … in words” value was “inactive”.
With `Nc1n[nH]c2cc([C@@H]3Nc4c(Br)cc5[nH]ncc5c4[C@H]4[C@@H]5CC[C@@H](C5)[C@H]43)ccc12` (stereo in doubt) [Compound 25, 6-(5-Bromo-6,7,7a,8,9,10,11,11a-octahydro-3H-8,11-methanopyrazolo[4,3-a]phenanthridin-7-yl)-1H-indazol-3-amine] the “Inhibition … in words” value was “inactive”.

Same assay, conditions: Homo sapiens, MDA-MB-231; 1 μM compound, 72 h incubation
For `Nc1n[nH]c2ccc(-c3nc4ccc5[nH]ncc5c4c4c3[C@H]3CC[C@@H]4C3)cc12` (stereo in doubt) [Compound 32, 5-(8,9,10,11-tetrahydro-3H-8,11-Methanopyrazolo[4,3-a]phenanthridin-7-yl)-1H-indazol-3-amine], the inhibition at 1 µM was 19%.
`c1csc([C@@H]2Nc3ccc4[nH]ncc4c3[C@H]3[C@@H]4CC[C@@H](C4)[C@H]32)c1` (stereo in doubt) [Compound 8, 7-(Thiophen-2-yl)-6,7,7a,8,9,10,11,11a-octahydro-3H-8,11-methanopyrazolo[4,3-a]phenanthridine] gave an inhibition at 1 µM of 13%.
`c1cc2cn[nH]c2cc1[C@@H]1Nc2ccc3[nH]ncc3c2[C@H]2C3CC[C@@H](C3)[C@@H]12` (stereo in doubt) [Compound 17, 7-(1H-Indazol-6-yl)-6,7,7a,8,9,10,11,11a-octahydro-3H-8,11-methanopyrazolo[4,3-a]phenanthridine] showed an inhibition at 1 µM of 91%.
`Nc1nc2ccc([C@@H]3Nc4ccc5[nH]ncc5c4[C@H]4[C@@H]5CC[C@@H](C5)[C@H]43)cc2s1` [Compound 29, 6-(6,7,7a,8,9,10,11,11a-Octahydro-3H-8,11-methanopyrazolo[4,3-a]phenanthridin-7-yl)benzo[d]thiazol-2-amine] showed an inhibition at 1 µM of 41%.
Work on `COc1cnccc1[C@@H]1Nc2ccc3[nH]ncc3c2[C@H]2C3CC[C@@H](C3)[C@@H]12` (stereo in doubt) [Compound 15, 7-(3-Methoxypyridin-4-yl)-6,7,7a,8,9,10,11,11a-octahydro-3H-8,11-methanopyrazolo[4,3-a]phenanthridine] yielded an inhibition at 1 µM of 12%.
Compound `Fc1cnccc1[C@@H]1Nc2ccc3[nH]ncc3c2[C@H]2[C@@H]3CC[C@@H](C3)[C@H]21` (stereo in doubt) [Compound 7, 7-(3-Fluoropyridin-4-yl)-6,7,7a,8,9,10,11,11a-octahydro-3H-8,11-methanopyrazolo[4,3-a]phenanthridine] has an inhibition at 1 µM of 11%.
For `N#Cc1cc([C@@H]2Nc3ccc4[nH]ncc4c3[C@H]3[C@@H]4CC[C@@H](C4)[C@H]32)ccc1F` (stereo in doubt) [Compound 10, 2-Fluoro-5-(−6,7,7a,8,9,10,11,11a-octahydro-3H-8,11-methanopyrazolo[4,3-a]phenanthridin-7-yl)benzonitrile], the inhibition at 1 µM was 3%.
`c1n[nH]cc1[C@@H]1Nc2ccc3[nH]ncc3c2[C@H]2[C@@H]3CC[C@@H](C3)[C@H]21` (stereo in doubt) [Compound 2, 7-(1H-Pyrazol-4-yl)-6,7,7a,8,9,10,11,11a-octahydro-3H-8,11-methanopyrazolo[4,3-a]phenanthridine] showed an inhibition at 1 µM of 12%.
